Reference: PubChem BioAssay (NCI)
“And” between values parts separate entries of the source, which are not always exact repeats. Equal entries are not always repeated.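 Cultured in 96-well plates, cells were exposed to test compound for 48 hours across five concentrations. Abbreviation: GI50, concentration required for 50% inhibition of growth. At the TGI there is no net growth.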

Experiments:
Experiment in all cases: NCI anticancer screen, dose series, 48 h
DMS 114 small cell lung = system: DMS 114 small cell lung
HOP-62 NSCLC = system: HOP-62 NSCLC
IGROV1 ovarian = system: IGROV1 ovarian
MALME-3M melanoma = system: MALME-3M melanoma
NCI-H23 lung = system: NCI-H23 lung
SK-MEL-5 melanoma = system: SK-MEL-5 melanoma
SN12C renal = system: SN12C renal
HS 578T breast = system: HS 578T breast

Compound	GI50 (DMS 114 small cell lung) [nM]	TGI (DMS 114 small cell lung)	GI50 (HOP-62 NSCLC) [nM]	TGI (HOP-62 NSCLC)	GI50 (IGROV1 ovarian) [µM]	TGI (IGROV1 ovarian)	GI50 (MALME-3M melanoma) [nM]	TGI (MALME-3M melanoma)	GI50 (NCI-H23 lung) [nM]	TGI (NCI-H23 lung)	GI50 (SK-MEL-5 melanoma) [nM]	TGI (SK-MEL-5 melanoma)	GI50 (SN12C renal) [nM]	TGI (SN12C renal)	TGI (HS 578T breast) [µM]
COc1cc(C2c3cc4c(cc3[C@@H](Nc3ccc(N(C)C)cc3)[C@H]3COC(=O)C23)OCO4)cc(OC)c1O (stereo not given in full)	596	2.95 µM and 3.2 µM	187	0.385 µM and 1.23 µM	4.57	14.7 µM and 19.9 µM	1600	12.1 µM and 15 µM	388	0.717 µM and 3.18 µM	1120	2.46 µM and 4.52 µM	453	2.41 µM and 3.64 µM	–
CSc1nc2c(c(O)c(C)c(=O)n2C2OC(COC(C)=O)C(OC(C)=O)C(OC(C)=O)C2OC(C)=O)c(=O)n1C (stereo not given)	–	> 100 µM	–	> 100 µM	–	> 100 µM	–	> 100 µM	–	> 100 µM	–	> 100 µM	–	> 100 µM	–
O=C(C(=O)c1ccc(Cc2ccc(C(=O)C(=O)c3ccccc3)cc2)cc1)c1ccccc1	–	> 100 µM	–	> 100 µM	–	> 100 µM	–	> 100 µM	–	> 100 µM	–	> 100 µM	–	> 100 µM	–
N#CC(C#N)SCc1ccccc1	–	60.1 µM	–	> 100 µM	–	> 100 µM	–	> 100 µM	–	89.1 µM	–	> 85.6 µM	–	> 100 µM	98.3
O=c1nc(-c2ccccc2)c2c3c(cccn13)CCC2	–	> 100 µM	–	> 100 µM	–	> 100 µM	–	> 100 µM	–	> 100 µM	–	> 100 µM	–	> 100 µM	–
O=C1c2ccccc2N2OC3(N4CCCC4)CCCC3C12c1ccccc1 (stereo not given)	–	> 100 µM	–	> 100 µM	–	> 100 µM	–	> 100 µM	–	> 100 µM	–	> 100 µM	–	> 100 µM	–
